From article PMC10182956 (Archives of Toxicology, 2023)
“Also recorded” adds a separate entry of the source. Like-named read-outs stand apart in the source and are kept apart here.

Tests used:
[1] = test system: HepaRG cells; experiment: Cell viability assessment (WST-1 assay); assay type: cell-based, human; conditions: 95% CI in brackets
Text: Undifferentiated HepaRG cells were purchased from Biopredic international (Saint Grégoire, France). HepaRG cells have unlimited growth capacity and phenotypic stability, stable enzymatic activities over 4 weeks of cultivation, and similar metabolic function to primary human hepatocytes, and also avoid limitations of primary cells such as donor variability and phenotypic instability (Aninat et al. [2006]; Guillouzo et al. [2007]; Lambert et al. [2009]; Lübberstedt et al. [2011]; Andersson et al. [2012]). The line contains two cell types, hepatocyte-like and cholangiocyte-like cells (Parent et al. [2004]), which allows for elucidation of cell-specific toxicity (Jossé et al. [2008]). Cells were seeded at a density of approximately 27′000 cells/cm^2 into a 150 × 25 mm petri dish and were cultured for 2 weeks in William’s E medium (cat. nr.: 32,551,020, ThermoFisher Scientific, Massachusetts, USA) supplemented with 2 mM glutamine, 10% (v/v) fetal bovine serum (FBS) good forte (cat. nr.: P40-47,500, PAN-Biotech, Aidenbach, Germany), 100 U/ml penicillin and 100 µg/ml streptomycin (cat. nr.: 15,140,122, ThermoFisher Scientific, Massachusetts, USA), 5 µg/ml Gibco recombinant AOF insulin (cat. nr.: A11382II, ThermoFisher Scientific, Massachusetts, USA) and 50 µM hydrocortisone hemisuccinate (cat. nr.: H4881, Sigma-Aldrich, St. Louis, USA) at 37 °C and 5% CO2. Differentiation was induced by culturing the cells for another 2 weeks in the above mentioned medium supplemented with 1.7% DMSO. After 4 weeks in culture, differentiated HepaRG cells were seeded at a high density of approximately 227′000 cells/cm^2 (72,000 cells/well with 100 µl per well) into black 96-well plates with a clear bottom (cat.nr.: 3603, Corning, New York, USA) and maintained for 10 days. After 10 days, cells were first adapted to treatment medium (culture medium containing 0.5% DMSO and 2% FBS) for 48 h and then used for cell viability and high-content imaging analysis.
Cell viability was analyzed using the WST-1 assay which is based on the measurement of mitochondrial dehydrogenase activity (cat. nr: ab155902, Abcam, Cambridge, UK). HepaRG cells were exposed to chemicals at defined concentrations for 24 h. Triton X-100 (0.01%) was a positive control. One hour before the end of incubation period, 10 µl of WST-1 reagent was added to each well, quickly mixed by shaking the plate, and returned to the cell culture incubator (37 °C, 5% CO2). After 1 h, absorbance was measured (450 nm, reference wavelength 620 nm) using a plate reader (Infinite M200 Pro, Tecan group, Männerdorf, Switzerland). Absorbance was then subtracted from the reference wavelength, corrected for background by subtracting values measured without cells, and then normalized to the solvent control, which was set to 100%. Dose–response data were fitted using drc package (Version 3.0.1) (Ritz et al. [2015]) in R 3.6.1. Data were from at least 3 independent experiments with 6 technical replicates per condition.

[2] = test system: HepaRG cells; experiment: High-content imaging assay: lipid accumulation (Bodipy lipid droplets); assay type: cell-based; conditions: for Lipid accumulation response (in words): population level, threshold ± 2 standard deviations of the response at the two lowest concentrations; for EC (BMC, 1 SD from control): read-out: LA: Benchmark concentration (µM) per imaging endpoint calculated with BMDS software
[3] = test system: HepaRG cells; conditions: HepaRG 24 h; for Mitochondrial membrane potential response (in words): population level, threshold ± 2 standard deviations of the response at the two lowest concentrations
[4] = test system: HepaRG cells; experiment: cells; conditions: Homo sapiens, 24 h, read-out: MMP: Benchmark concentration (µM) per imaging endpoint calculated with BMDS software
[5] = atrazine: increase relative liver weight, ref Aguilar et al. [2009], ATSDR [2003], Food and Authority [2009a], Food and Authority [2009b], cited from earlier work; for NOAEL from literature (mg/kg BW/day): first value of cell NOAEL/LOAEL; for LOAEL from literature (mg/kg BW/day): second value of cell NOAEL/LOAEL
[6] = test system: HepaRG cells; conditions: for OS: Benchmark concentration (µM) per imaging endpoint calculated with BMDS software: oxidative stress, Supplementary table 3; for Oxidative stress response (in words): population level, threshold ± 2 standard deviations of the response at the two lowest concentrations
[7] = for OED: IVIVE derived median over all positive imaging endpoints, human simulation, Table 2; for OED (mg/kg BW/day): IVIVE derived median with 95% CI, from BMC of positive imaging endpoint, oral, daily dosing, Table 1; for OED compared with reported NOAEL, LOAEL concentrations or the exposure estimate (in words): human
[8] = test system: HepaRG cells; experiment: cells; conditions: Homo sapiens, 24 h, read-out: NM: Benchmark concentration (µM) per imaging endpoint calculated with BMDS software
[9] = cited from earlier work; for In vivo Css: human, published, ref Birkett and Miners 1991, Graham et al. 2011, Freedman and Somberg 1991, Vasudev et al. 2001; for In vivo blood plasma conc.: ref Aguilar et al. [2009], D’Apolito et al. [2012], Li et al. [2009]
[10] = test system: HepaRG cells
[11] = Homo sapiens, WST-1, 24 h exposure, food-related chemicals and pesticides, read-out: EC50 (95% CI) in µM from cell viability assay
[12] = Homo sapiens, lipid accumulation, HepaRG 24 h, BMR one standard deviation from control mean, Table 1
[13] = Homo sapiens, 24 h exposure, reference chemicals, read-out: EC50 µM (95% CI) from cell viability (WST-1)

## Cc1cccc(C)c1N(Cn1cccn1)C(=O)CCl [Metazachlor]
[1]; [11]
  EC50: 183 µM
[2]; HepaRG 24 h
  Lipid accumulation response (in words): induced significant lipid accumulation

## CC(C)(c1ccc(O)cc1)c1ccc(O)cc1 [Bisphenol A]
[1]; [11]
  EC50: 237 µM
[2]; HepaRG 24 h
  Lipid accumulation response (in words): induced significant lipid accumulation

## CNC(=O)Oc1cccc2c1OC(C)(C)C2 [Carbofuran]
[2]; HepaRG 24 h
  Lipid accumulation response (in words): did not stimulate lipid accumulation
[3]
  Mitochondrial membrane potential response (in words): dose-dependent increase in MMP exceeding the threshold
[4]
  EC (BMC, 1 SD from control): 4980 µM
[5]
  NOAEL from literature (mg/kg BW/day): 0.03–0.1 mg/kg BW/day
  LOAEL from literature (mg/kg BW/day): 0.1–0.3 mg/kg BW/day

## CCCCc1oc2ccccc2c1C(=O)c1cc(I)c(OCCN(CC)CC)c(I)c1 [amiodarone]
[2]; 24 h
  EC (BMC, 1 SD from control): 8.5 µM
[2]; HepaRG 24 h
  Lipid accumulation response (in words): increased in a dose-dependent manner
[3]
  Concentration at which decrease of mitochondrial membrane potential exceeded the threshold: 25 µM
[6]; HepaRG 24 h
  Concentration at which increase of oxidative stress exceeded the threshold: 25 µM
  OS: Benchmark concentration (µM) per imaging endpoint calculated with BMDS software: 5.35 µM
[7]
  OED: 15.8 mg/kg/day
[4]
  EC (BMC, 1 SD from control): 13.8 µM
[8]
  EC (BMC): 14.9 µM
[9]
  In vivo Css: 5.4 to 6.0 µM

## O=C(CO)[C@@H](O)[C@H](O)[C@H](O)CO [Fructose]
[1]; [11]
  EC50: 6.6 µM
[2]; HepaRG 24 h
  Lipid accumulation response (in words): did not stimulate lipid accumulation
[3]
  Mitochondrial membrane potential response (in words): dose-dependent increase in MMP exceeding the threshold

## O=c1[nH]c(=O)c2[nH]c(=O)[nH]c2[nH]1 [Uric acid]
[2]; HepaRG 24 h
  Lipid accumulation response (in words): induced significant lipid accumulation
[2]; [12]
  EC (BMC, 1 SD from control): 591 µM
[7]
  OED (mg/kg BW/day): 87.3 (95% CI 67.3–150.6) mg/kg BW/day
[9]
  In vivo blood plasma conc.: 217 to 402 µM

## N#CC(C#N)=NNc1ccc(OC(F)(F)F)cc1 [FCCP, carbonylcyanide-p-trifluoromethoxyphenylhydrazone]
[3]
  Concentration at which decrease of mitochondrial membrane potential exceeded the threshold: 2.5 µM

## N#Cc1nn(-c2c(Cl)cc(C(F)(F)F)cc2Cl)c(N)c1[S+]([O-])C(F)(F)F (stereo not shown) [Fipronil]
[1]; [11]
  EC50: 21 µM

## O=C(O)c1cc(=O)[nH]c(=O)[nH]1 [Orotic acid]
[2]; HepaRG 24 h
  Lipid accumulation response (in words): did not stimulate lipid accumulation
[3]
  Mitochondrial membrane potential response (in words): dose-dependent increase in MMP exceeding the threshold
[7]
  OED (mg/kg BW/day): 61.2 (95% CI 21.1–134) mg/kg BW/day
  OED compared with reported NOAEL, LOAEL concentrations or the exposure estimate (in words): overlapped
[4]
  EC (BMC, 1 SD from control): 423 µM
[9]
  In vivo blood plasma conc.: 0.15 to 0.3 µM
[5]
  NOAEL from literature (mg/kg BW/day): 50 mg/kg BW/day
  LOAEL from literature (mg/kg BW/day): 100 mg/kg BW/day

## O=C([O-])C1=NN(c2ccc(S(=O)(=O)[O-])cc2)C(=O)C1N=Nc1ccc(S(=O)(=O)[O-])cc1.[Na+].[Na+].[Na+] (stereo not shown) [Tartrazine]
[2]; HepaRG 24 h
  Lipid accumulation response (in words): induced significant lipid accumulation

## CCCC(CCC)C(=O)O [valproic acid]
[2]; HepaRG 24 h
  Lipid accumulation response (in words): accumulated in a dose-dependent manner above the threshold
[2]; Homo sapiens, lipid accumulation, HepaRG 24 h, Supplementary table 3
  EC (BMC, 1 SD from control): 570 µM
[3]
  Mitochondrial membrane potential response (in words): did not affect MMP
[6]; HepaRG 24 h
  Oxidative stress response (in words): no changes were observed
  OS: Benchmark concentration (µM) per imaging endpoint calculated with BMDS software: 1379.8 µM
[7]
  OED: 92.7 mg/kg/day
[4]
  EC (BMC, 1 SD from control): 1310 µM
[8]
  EC (BMC): 612 µM
[9]
  In vivo Css: 346.7 to 693.4 µM

## O=[As][O-].[Na+] [Sodium arsenite]
[6]
  Concentration at which increase of oxidative stress exceeded the threshold: 25 µM
[10]
  Concentration at which increase of number of apoptotic cells (nuclear morphology) exceeded the threshold: 25 µM

## C[C@H](CCC(=O)O)[C@H]1CC[C@H]2[C@@H]3CC[C@@H]4C[C@H](O)CC[C@]4(C)[C@H]3C[C@H](O)[C@]12C [Deoxycholic acid]
[1]; [11]
  EC50: 246 µM

## C=C(C)[C@H]1Cc2c(ccc3c2O[C@@H]2COc4cc(OC)c(OC)cc4[C@@H]2C3=O)O1 [rotenone]
[1]; [13]
  EC50: 18.9 µM
[2]; HepaRG 24 h
  Lipid accumulation response (in words): increased in a dose-dependent manner
[3]
  Concentration at which decrease of mitochondrial membrane potential exceeded the threshold: 2.5 µM
[7]
  OED: 0.3 mg/kg/day

## C=CC1(C)OC(=O)N(c2cc(Cl)cc(Cl)c2)C1=O (stereo not shown) [Vinclozolin]
[2]; HepaRG 24 h
  Lipid accumulation response (in words): induced significant lipid accumulation

## CCCCN(CCCC)SN(C)C(=O)Oc1cccc2c1OC(C)(C)C2 [Carbosulfan]
[2]; [12]
  EC (BMC, 1 SD from control): 77 µM
[7]
  OED (mg/kg BW/day): 10.4 (95% CI 7–19.3) mg/kg BW/day
  OED compared with reported NOAEL, LOAEL concentrations or the exposure estimate (in words): overlapped
[5]
  NOAEL from literature (mg/kg BW/day): 0.5–1.2 mg/kg BW/day
  LOAEL from literature (mg/kg BW/day): 5–62 mg/kg BW/day

## Cn1c(=O)c2c(ncn2C)n(C)c1=O [caffeine]
[1]; [13]
  EC50: 6530 µM
[2]; HepaRG 24 h
  Lipid accumulation response (in words): decrease of lipid accumulation that exceeded the threshold
[2]; HepaRG 24 h, only at the highest concentration
  Concentration at which decrease of lipid accumulation exceeded the threshold: 5000 µM

## O=S(=O)(c1ccccc1)N(CC(F)(F)F)c1ccc(C(O)(C(F)(F)F)C(F)(F)F)cc1 [T0901317]
[1]; 24 h exposure, reference chemicals, read-out: EC50 µM (95% CI) from cell viability (WST-1)
  EC50: 42.9 µM
[2]; HepaRG 24 h
  Lipid accumulation response (in words): dose-dependently increased and exceeded the threshold
[3]
  Mitochondrial membrane potential response (in words): decrease in MMP below the threshold
[6]; HepaRG 24 h
  Concentration at which increase of oxidative stress exceeded the threshold: 40 µM
[10]; HepaRG 24 h
  Concentration at which increase of number of apoptotic cells (nuclear morphology) exceeded the threshold: 40 µM

## CCOC(=O)[C@@]1(CCCCCCOc2ccc(Cl)cc2)CO1 [etomoxir]
[1]; [13]
  EC50: 144 µM
[2]; HepaRG 24 h
  Lipid accumulation response (in words): neither induced lipid accumulation; also recorded: did not give rise to lipid accumulation
[3]
  Concentration at which increase of MMP (hyperpolarization) was observed / exceeded the threshold: 36 µM
  Mitochondrial membrane potential response (in words): increased MMP
[6]; HepaRG 24 h
  Oxidative stress response (in words): neither induced lipid accumulation, had any consistent impact on oxidative stress

## CCNc1nc(Cl)nc(NC(C)C)n1 [Atrazine]
[2]; HepaRG 24 h
  Lipid accumulation response (in words): induced significant lipid accumulation
[2]; [12]
  EC (BMC, 1 SD from control): 19 µM
[7]
  OED (mg/kg BW/day): 0.5 (95% CI 0.2–1.7) mg/kg BW/day
[5]
  NOAEL from literature (mg/kg BW/day): 5 mg/kg BW/day

## CC1=CC[C@@H](C(C)(C)O)CC1 [Alpha-terpineol]
[1]; [11]
  EC50: 2560 µM
